Values of other authors as cited in publication PMC11261124 (Poultry Science, 2024).

Columns and labels:
HSV-2 = conditions: read-out: IC50 against HSV-2

Structure (SMILES)	anti-HIV activity IC50 (HIV)	IC50 (HSV-2)
COc1cn2c3ccccc3c3ccnc(c1=O)c32 [Drymaritin]	0.699 µg/mL	–
COc1ccc2c(c1)[nH]c1c(C)nccc12 [Harmine]	–	1470 nM
